Results reported in PubChem BioAssay (NCI).
“And” between values parts separate entries of the source, which are not always exact repeats. Identical values can stand only once.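 Grown in 96-well plates, cells were treated for 48 hours with each compound at five concentrations. Insufficient inhibition: endpoint recorded as highest concentration tested. The concentration for 50% growth inhibition is given as GI50. TGI is the concentration that stops growth completely.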

Legend:
Experiment in all cases: NCI anticancer screen, dose series, 48 h
MCF7 breast = tested on: MCF7 breast
SNB-75 CNS = tested on: SNB-75 CNS
MDA-MB-231 breast = tested on: MDA-MB-231 breast
T-47D breast = tested on: T-47D breast
OVCAR-4 ovarian = tested on: OVCAR-4 ovarian
SR leukemia = tested on: SR leukemia
BT-549 breast = tested on: BT-549 breast
MDA-MB-435 = tested on: MDA-MB-435
MALME-3M melanoma = tested on: MALME-3M melanoma
NCI-H522 lung = tested on: NCI-H522 lung

Compound | GI50 (MCF7 breast) | TGI (MCF7 breast) | GI50 (SNB-75 CNS) | TGI (SNB-75 CNS) | GI50 (MDA-MB-231 breast) | TGI (MDA-MB-231 breast) | GI50 (T-47D breast) | TGI (T-47D breast) | GI50 (OVCAR-4 ovarian) | TGI (OVCAR-4 ovarian) | GI50 (SR leukemia) [µM] | TGI (SR leukemia) | GI50 (BT-549 breast) [µM] | TGI (BT-549 breast) | GI50 (MDA-MB-435) [µM] | TGI (MDA-MB-435) | GI50 (MALME-3M melanoma) | TGI (MALME-3M melanoma) | GI50 (NCI-H522 lung) | TGI (NCI-H522 lung)
CN[C@@H](C)C(=O)N[C@H](C(=O)N1CCC[C@H]1c1nc(C(=O)c2ccc(F)cc2)cs1)C1CCCCC1 | 16.1 µM | 32.8 µM | 4.31 µM | 20.9 µM | 0.324 µM | 20.6 µM | 20.4 µM | 77.8 µM | 0.51 µM | 13.9 µM | 11.5 | 38 µM | 11.7 | 26.7 µM | 16.3 | 40.6 µM | 4.08 µM | 20 µM | 3.45 µM | 16.5 µM
CCCC(=O)Oc1ccc(/C(=C(\C)c2ccc(Cl)cc2)c2ccc(OCCN(CC)CC)cc2)cc1 | 0.117 µM | 3.47 µM | 12.8 µM | 30.2 µM | 2.42 µM | 5.13 µM | 1.39 µM | 4.88 µM | 4.16 µM | 19.4 µM | 1.98 | 6.92 µM | 4.85 | 18.9 µM | 1.78 | 3.68 µM | 1.74 µM | 3.55 µM | 12.9 µM | 29.5 µM
Nc1nc(N)nc(CCCCc2nc(N)nc(N)n2)n1 | – | > 100 µM | – | > 100 µM | – | > 100 µM | – | > 100 µM | – | > 100 µM | – | > 100 µM | – | > 100 µM | – | > 100 µM | – | > 100 µM | – | > 100 µM
C=C1C(=O)OC2CC1C(OC(=O)/C=C/c1ccccc1)C/C(C)=C/CC/C(C)=C/CCC2(C)O (configuration not stated) | – | 1.96 µM | – | 2.87 µM | – | 5.39 µM | – | 18.4 µM | – | 2.96 µM | – | > 21.6 µM | – | 2.8 µM | – | 3.76 µM | – | 4.02 µM | – | 1.63 µM
OCc1c(-c2cccs2)oc(-c2cccs2)c1CO | 1.62 µM | > 100 µM | 69.4 µM | > 100 µM | 47.3 µM | 94 µM | 17.3 µM | > 100 µM | > 100 µM | > 100 µM | 32.5 | 60.5 µM | 56 | > 100 µM | 46.9 | > 100 µM | 30.1 µM | 94.6 µM | 39.1 µM | > 100 µM
O=C(O)CCC(O)=C1S(=O)(=O)OCCOS1(=O)=O | – | > 100 µM | – | > 100 µM | – | > 100 µM | – | > 100 µM | – | > 100 µM | – | > 100 µM | – | > 100 µM | – | > 100 µM | – | > 100 µM | – | > 100 µM
Nc1n[n+]([O-])c2ccc(Cl)cc2[n+]1[O-] | – | > 100 µM | – | > 100 µM | – | > 100 µM | – | 99.4 µM | – | – | – | > 100 µM | – | 29.2 µM | – | 74.2 µM | – | 59 µM | – | 38.2 µM
Cc1cc(NC(=O)NCCOc2ccc(N3C(N)=NC(N)=NC3(C)C)cc2Cl)ccc1S(=O)(=O)F | 1.7 µM | 50.3 µM | 1.53 µM | 48.3 µM | 6.11 µM | > 77.9 µM | 5.13 µM | 74.9 µM | 2.75 µM | > 77.5 µM | 0.493 | 40 µM | 6.31 | > 76.8 µM | 0.626 | > 100 µM | 7.46 µM | 41.1 µM | 2.54 µM | 17.7 µM
CC(NCCN(C)C)C1CCC2C3CCc4cc(O)ccc4C3CCC12C (configuration not stated) | – | 11.5 µM | – | 10.2 µM | – | 4.42 µM | – | 5.29 µM | – | 9.55 µM | – | 3.85 µM | – | 31.4 µM | – | 4.7 µM | – | 3.73 µM | – | 10.6 µM
N#CC1=C(N)NC(=O)C(C#N)C12Nc1ccccc1S2 (configuration not stated) | 32.7 µM | > 100 µM | > 100 µM | > 100 µM | 29.8 µM | > 100 µM | > 100 µM | > 100 µM | > 100 µM | > 100 µM | 52.4 | > 100 µM | 69.9 | > 100 µM | > 100 | > 100 µM | 64 µM | > 100 µM | 19.1 µM | 60.5 µM
O=[N+]([O-])c1ccccc1/C=N\NC(=S)N/N=C/c1ccccc1[N+](=O)[O-] | 3.12 µM | > 100 µM | 2.21 µM | 8.75 µM | 37.8 µM | > 100 µM | 4.93 µM | > 100 µM | 20.6 µM | > 100 µM | 2.87 | > 100 µM | 39.6 | > 100 µM | 0.426 | 3.62 µM | – | – | 2.15 µM | 21.7 µM
COc1cc(/C=C/C(=O)c2c(C)n([O-])c3ccccc3[n+]2=O)cc(OC)c1OC | 3.18 µM | 13.4 µM | 12.5 µM | 30.8 µM | 9.57 µM | 22.4 µM | 8.71 µM | 28.7 µM | 10.8 µM | > 100 µM | 2.75 | 14.9 µM | 3.18 | 13.5 µM | 5.4 | 22.5 µM | 11.4 µM | 26.7 µM | 8.73 µM | 24 µM
NC(CSC(c1ccccc1)(c1ccccc1)c1ccccc1)C(=O)O (configuration not stated) | 0.665 µM and 0.416 µM | 67.8 µM and > 100 µM | 2.34 µM | 9.45 µM and 50.6 µM and 29.2 µM | 1.08 µM | 4.65 µM and 6.45 µM | 3.46 µM | 54.9 µM and 53.4 µM | 11.6 µM and 11.2 µM | 61 µM and > 100 µM | – | 19.3 µM and 43.8 µM | 4.88 | 57.8 µM and > 100 µM | 0.275 | 0.648 µM and 0.791 µM | 1.33 µM and 5.62 µM | 49.2 µM and 39.2 µM and > 100 µM | 0.524 µM and 0.413 µM | 2.2 µM and 7.13 µM and 4.28 µM
NCC(=O)Nc1ccc(Cl)cc1C(=O)c1ccc[nH]1 | – | > 100 µM | – | > 100 µM | – | > 100 µM | – | > 100 µM | – | > 94.9 µM | – | > 100 µM | – | > 100 µM | – | > 100 µM | – | > 100 µM | – | 50.1 µM
O=C(O)/C=C/c1c2ccc(=O)c(O)c-2oc2c(O)c(O)ccc12 | – | 34.8 µM | – | > 100 µM | – | 66.5 µM | – | > 100 µM | – | > 100 µM | – | > 100 µM | – | > 100 µM | – | 33.5 µM | – | > 100 µM | – | > 100 µM
CCc1nc(N)nc(N)c1C#CC(C)c1ccc(-c2ccncc2)cc1Cl (configuration not stated) | 0.0144 µM and 0.0328 µM | 4.31 µM and 12.1 µM | 0.505 µM and 1.67 µM | 2.76 µM and 9.74 µM | 0.555 µM and 0.511 µM | 7.11 µM and 19.8 µM | 0.0896 µM and 0.675 µM | 2.2 µM and 13.6 µM | – | 7.39 µM and 26.2 µM | – | 2.27 µM and 6.27 µM | – | 2.8 µM and 12.1 µM | – | 4.85 µM and 14.3 µM | 0.0378 µM and 0.307 µM | 1.93 µM and 13.1 µM | 0.0477 µM and 0.0346 µM | 2.97 µM and 4.06 µM
